Results on 23 molecules are retold here after patent publication US9206130B2, “Quinoline derivatives as AXL kinase inhibitors” (Max-Planck-Gesellschaft zur Förderung der Wissenschaften …, priority 2008, dated 2015).

For data set [1], the target named is T1, wild type AXL (wtAXL) receptor tyrosine kinase (Homo sapiens, UniProt P30530).
T1 construct: WtAXL cDNA was cloned into vector pLXSN(ESK) and transfected into Phoenix E packaging cells; expressed in transfected cells; host or cells: NIH3T3 N7 mouse fibroblasts, retrovirally infected (clone 22)
T1 sequence (P30530 26-894): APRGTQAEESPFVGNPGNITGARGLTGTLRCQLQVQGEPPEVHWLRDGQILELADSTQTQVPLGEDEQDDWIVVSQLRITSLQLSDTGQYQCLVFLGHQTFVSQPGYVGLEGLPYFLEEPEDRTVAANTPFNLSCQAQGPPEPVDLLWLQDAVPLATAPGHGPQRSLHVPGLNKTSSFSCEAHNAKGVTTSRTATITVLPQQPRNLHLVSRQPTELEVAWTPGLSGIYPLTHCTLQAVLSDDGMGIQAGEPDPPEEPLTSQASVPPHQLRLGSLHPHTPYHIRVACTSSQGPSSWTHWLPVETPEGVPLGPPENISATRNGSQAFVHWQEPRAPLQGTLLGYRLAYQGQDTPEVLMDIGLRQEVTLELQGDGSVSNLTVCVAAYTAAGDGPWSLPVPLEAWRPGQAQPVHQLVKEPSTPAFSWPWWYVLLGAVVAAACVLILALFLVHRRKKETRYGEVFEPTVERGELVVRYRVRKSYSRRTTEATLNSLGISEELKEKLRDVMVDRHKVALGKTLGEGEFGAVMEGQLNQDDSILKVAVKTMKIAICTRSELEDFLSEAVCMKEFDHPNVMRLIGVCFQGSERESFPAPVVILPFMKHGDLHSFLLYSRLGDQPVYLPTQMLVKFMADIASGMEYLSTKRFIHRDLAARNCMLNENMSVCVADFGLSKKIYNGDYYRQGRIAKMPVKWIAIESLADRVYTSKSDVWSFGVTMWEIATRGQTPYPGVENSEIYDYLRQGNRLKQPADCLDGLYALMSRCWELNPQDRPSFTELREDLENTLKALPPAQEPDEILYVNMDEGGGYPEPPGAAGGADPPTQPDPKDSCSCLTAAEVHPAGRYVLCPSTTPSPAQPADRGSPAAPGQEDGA
The data set is described as follows: NIH-3T3-AXL cellular tyrosine kinase assay (inhibition of AXL phosphorylation). The data set is classed as cell-based. The following applies: AXL phosphorylation in NIH-3T3-AXL (clone 22) cells, serum-depleted, 2 h with compound, immunoprecipitation / anti-phosphotyrosine blot. The method, then: 3) Inhibitory Activity of Compounds on Axl Phosphorylation in NIH-3T3-AXL Cellular Tyrosine Kinase Assay
The viral supernatant was collected and used to infect target cells NIH3T3 N7. Monoclonal NIH3T3-AXL cell lines stably expressing wtAXL were generated by selecting retrovirally infected cells in medium containing puromycin (2 μg/ml) and subsequent clonal separation.
NIH-3T3-AXL Cellular Kinase Assay
Serial dilutions of compounds were added, and the cells were further incubated or 2 h. […] The clarified cell lysate (10 min at 13000 rpm at 4° C.) were used for immunoprecipitation. Equal amounts of protein were mixed with 2 μg anti-AXL polyclonal antibody (homemade) and 20 μl Protein A sepharose beads, and rotated for 6 hr at 4° C. After immunoprecipitation, the beads were washed three times with 1×HNTG (50 mM HEPES (pH 7.5), 150 mM NaCl, 10% Glycerol, 0.2% Triton X-100). The final pellet was suspended in 20 μl 2× Laemmli buffer, and boiled for 5 min at 100° C. […] The membrane was then incubated with anti-phosphotyrosine antibody (4G10) overnight at 4° C. followed by washing with 1×TBST buffer three times. After incubating membrane with HRP-conjugated anti-mouse secondary antibody for 1 hour at room temperature followed by washing with 1×TBST buffer three times, the proteins were visualized by ECL.

One may read the IC50 as the point on the concentration scale where inhibition reaches its midpoint. Broadly, the melting point is the temperature, or range, at which the solid turns liquid. `COc1cc2c(Oc3ccc(NS(=O)(=O)c4ccccc4Br)cc3F)ccnc2cc1OCCN1CCOCC1` [Example D26, 2-Bromo-N-{3-fluoro-4-[6-methoxy-7-(2-morpholin-4-yl-ethoxy)-quinolin-4-yloxy]-phenyl}-benzenesulfonamide]: the melting point fell in the range of 175 to 177 °C. Further, in data set [1], the IC50 came out at 150 nM.
On the same counts, the results for `COc1cc2nccc(Oc3ccc(NS(=O)(=O)c4cc(Cl)cc(Cl)c4OC)cc3F)c2cc1OC` [Example A106, 3,5-Dichloro-N-[4-(6,7-dimethoxy-quinolin-4-yloxy)-3-fluoro-phenyl]-2-methoxy-benzenesulfonamide] are 155 to 158 °C and 750 nM.
On the same counts, the results for `COc1cc2nccc(Oc3ccc(NS(=O)(=O)c4ccc(Br)c(Cl)c4)cc3OC)c2cc1OC` [Example A122, 4-Bromo-3-chloro-N-[4-(6,7-dimethoxy-quinolin-4-yloxy)-3-methoxy-phenyl]-benzenesulfonamide] are 110 to 113 °C and > 10000 nM.
In turn, `COc1cc2nccc(Oc3ccc(NS(=O)(=O)c4ccc(Br)cc4OC(F)(F)F)c(F)c3)c2cc1OC` [Example A147, 4-Bromo-N-[4-(6,7-dimethoxy-quinolin-4-yloxy)-2-fluoro-phenyl]-2-trifluoromethoxy-benzenesulfonamide] yielded a melting point of 227 to 229 °C. Moreover, the IC50 in data set [1] is > 3000 nM.
In the same order, the values of `COc1cc2nccc(Oc3ccc(NS(=O)(=O)c4ccc(-c5ccccc5)cc4)cc3)c2cc1OC` [Example A81, Biphenyl-4-sulfonic acid [4-(6,7-dimethoxy-quinolin-4-yloxy)-phenyl]-amide] are 191 to 194 °C and > 10000 nM.
On the same counts, the results for `COc1cc2nccc(Oc3ccc(NS(=O)(=O)/C=C/c4ccccc4)c(F)c3)c2cc1OC` [Example A16, 2-Phenyl-ethenesulfonic acid [4-(6,7-dimethoxy-quinolin-4-yloxy)-2-fluoro-phenyl]-amide] are 224 to 225 °C and 1810 nM.
On the same counts, the results for `COc1cc2nccc(Oc3ccc(NS(=O)(=O)c4cccc(Oc5ccccc5)c4)cc3)c2cc1OC` [Example A115, N-[4-(6,7-Dimethoxy-quinolin-4-yloxy)-phenyl]-3-phenoxy-benzenesulfonamide] are 172 to 174 °C and 1260 nM.
In the case of `COc1cc2nccc(Oc3ccc(NS(=O)(=O)c4ccc(OC)c5ccccc45)cc3)c2cc1OC` [Example A133, 4-Methoxy-naphthalene-1-sulfonic acid [4-(6,7-dimethoxy-quinolin-4-yloxy)-phenyl]-amide], the melting point lay in the range of 240 to 242 °C. Moreover, the concentration for half-maximal inhibition (IC50) in data set [1] is > 10000 nM.
`COc1cc2nccc(Oc3ccc(NS(=O)(=O)c4cccc(-c5ncccn5)c4)c(F)c3)c2cc1OC` [Example A102, N-[4-(6,7-Dimethoxy-quinolin-4-yloxy)-2-fluoro-phenyl]-3-pyrimidin-2-yl-benzenesulfonamide]: the melting point lay within 137 to 140 °C. In addition, the half-maximal inhibitory concentration (IC50) in data set [1] was > 1000 nM.
On the same counts, the results for `COc1cccc(S(=O)(=O)Nc2ccc(Oc3cc(C)nc4ccc(F)cc34)cc2F)c1` [Example B3, N-[2-Fluoro-4-(6-fluoro-2-methyl-quinolin-4-yloxy)-phenyl]-3-methoxy-benzenesulfonamide] are 150 to 151 °C and 8000 nM.
`Cc1cc(Oc2ccc(NS(=O)(=O)c3cc(Cl)cc(Cl)c3)cc2)c2cc(F)ccc2n1` [Example B10, 3,5-Dichloro-N-[4-(6-fluoro-2-methyl-quinolin-4-yloxy)-phenyl]-benzenesulfonamide] came in with a melting point of 238 to 240 °C. For the same molecule, the IC50 in data set [1] was > 10000 nM.
In the same order, the values of `COc1cc2nccc(Oc3ccc(NS(=O)(=O)c4cc(C)ccc4NC(C)=O)cc3)c2cc1OC` [Example A65, N-{2-[4-(6,7-Dimethoxy-quinolin-4-yloxy)-phenylsulfamoyl]-4-methyl-phenyl}-acetamide] are 134 to 136 °C and > 10000 nM.
In the same order, the values of `COc1cc2c(Oc3ccc(NS(=O)(=O)c4ccccc4C(F)(F)F)c(C)c3)ccnc2cc1OCCN1CCOCC1` [Example D11, N-{4-[6-Methoxy-7-(2-morpholin-4-yl-ethoxy)-quinolin-4-yloxy]-2-methyl-phenyl}-2-trifluoromethyl-benzenesulfonamide] are 127 to 130 °C and > 3000 nM.
In turn, `COc1ccc(S(=O)(=O)Nc2ccc(Oc3ccnc4cc(OC)c(OC)cc34)cc2F)cc1F` [Example A88, N-[4-(6,7-Dimethoxy-quinolin-4-yloxy)-2-fluoro-phenyl]-3-fluoro-4-methoxy-benzenesulfonamide] showed a melting point of 230 to 232 °C. In addition, in data set [1], the IC50 was > 1000 nM.
In the same order, the values of `Cc1cc(Oc2ccc(NS(=O)(=O)c3cccc(C(F)(F)F)c3)c(F)c2)c2cc(F)ccc2n1` [Example B8, N-[2-Fluoro-4-(6-fluoro-2-methyl-quinolin-4-yloxy)-phenyl]-3-trifluoromethyl-benzenesulfonamide] are 150 to 152 °C and > 10000 nM.
On the same counts, the results for `COc1cc2nccc(Oc3ccc(NS(=O)(=O)c4ccc(-c5ccccc5)s4)c(F)c3)c2cc1OC` [Example A36, 5-Phenyl-thiophene-2-sulfonic acid [4-(6,7-dimethoxy-quinolin-4-yloxy)-2-fluoro-phenyl]-amide] are 186 to 188 °C and 2800 nM.
On the same counts, the results for `COc1cc(S(=O)(=O)Nc2ccc(Oc3ccnc4cc(OC)c(OC)cc34)cc2)ccc1F` [Example A116, N-[4-(6,7-Dimethoxy-quinolin-4-yloxy)-phenyl]-4-fluoro-3-methoxy-benzenesulfonamide] are 222 to 224 °C and > 3000 nM.
Take `COc1cc2nccc(Oc3ccc(NS(=O)(=O)c4cccc(-c5ncccn5)c4)cc3F)c2cc1OC` [Example A101, N-[4-(6,7-Dimethoxy-quinolin-4-yloxy)-3-fluoro-phenyl]-3-pyrimidin-2-yl-benzenesulfonamide]: the melting point fell in the range of 105 to 107 °C. Moreover, the IC50 in data set [1] is > 1000 nM.
Molecule `COc1cc2nccc(Oc3ccc(NS(=O)(=O)c4ccc(Br)s4)c(F)c3)c2cc1OC` [Example A29, 5-Bromo-thiophene-2-sulfonic acid [4-(6,7-dimethoxy-quinolin-4-yloxy)-2-fluoro-phenyl]-amide] returned a melting point of 207 to 209 °C. Moreover, in data set [1], the IC50 was found to be 2300 nM.
On the same counts, the results for `Cc1cc(Oc2ccc(NS(=O)(=O)c3cc(Cl)ccc3Cl)c(F)c2)c2cccc(C(F)(F)F)c2n1` [Example C05, 2,5-Dichloro-N-[2-fluoro-4-(2-methyl-8-trifluoromethyl-quinolin-4-yloxy)-phenyl]-benzenesulfonamid] are 207 to 209 °C and > 10000 nM.
In the same order, the values of `Cc1cc(Oc2ccc(NS(=O)(=O)c3ccccc3)cc2)c2cc(F)ccc2n1` [Example B9, N-[4-(6-Fluoro-2-methyl-quinolin-4-yloxy)-phenyl]-benzenesulfonamide] are 207 to 208 °C and > 10000 nM.
In the same order, the values of `COc1cc2c(Oc3ccc(NS(=O)(=O)c4ccc(F)cc4F)cc3F)ccnc2cc1OCCCN1CCC(C)CC1` [Example D19, 2,4-Difluoro-N-(3-fluoro-4-{6-methoxy-7-[3-(4-methyl-piperidin-1-yl)-propoxy]-quinolin-4-yloxy}-phenyl)-benzenesulfonamide] are 135 to 137 °C and 128 nM.
The molecule `COc1cc2nccc(Oc3ccc(NS(=O)(=O)CC(C)C)c(F)c3)c2cc1OC` [Example A72, 2-Methyl-propane-1-sulfonic acid [4-(6,7-dimethoxy-quinolin-4-yloxy)-2-fluoro-phenyl]-amide] came in with a melting point of 175 to 176 °C. Further, the IC50 in data set [1] is 580 nM.
